Measured values as given in patent publication US20240101570A1 (AMGEN INC., priority 2020, published 2024).

Columns and labels:
[1] = tested on: HCT116 WT cells; test: HCT116 WT cell proliferation / viability (CellTiter-Glo, 6 days); assay type: cell-based; conditions: Homo sapiens, HCT-116, 144 h, HCT116 WT cells, 6 days, CellTiter-Glo; read-out: HCT-116 WT IC50
How it was run: (§1)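 CellTiter-Glo luminescence, 6-day exposure, RPMI 1640 + 10% FBS. Dosing: 1:3 series (8-9 pts, top 1 or 10 μM) or 1:2 series (22 pts, top 10 or 50 μM), DMSO control. IC50 = 50% of control via curve fit.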

[2] = tested on: HCT116 MTAP null cells; test: HCT116 MTAP null cell proliferation / viability (CellTiter-Glo, 6 days); assay type: cell-based; conditions: HCT116-MTAP null, 144 h, HCT116 MTAP null cells, 6 days, CellTiter-Glo; read-out: HCT-116 MTAP null IC50
How it was run: as §1

SMILES | IC50 [1] [nM] | IC50 [2] [nM]
CN(Cc1ccc(C2CC2)nn1)C(=O)c1cc2c(cc1F)nc(N)c1c2cnn1C [Example 517, 4-amino-N-((6-cyclopropyl-3-pyridazinyl)methyl)-7-fluoro-N,3-dimethyl-3H-pyrazolo[3,4-c]quinoline-8-carboxamide] | 45400 | 706
CN(Cc1ccc(C2CC2)nn1)C(=O)c1cc2c(cc1F)nc(N)c1cnn(C)c12 [Example 518, 4-amino-N-((6-cyclopropyl-3-pyridazinyl)methyl)-7-fluoro-N,1-dimethyl-1H-pyrazolo[4,3-c]quinoline-8-carboxamide] | 6270 | 106
CN(Cc1ccc(C2CC2)nn1)C(=O)c1cc2c3c(c(N)nc2cc1Cl)COC3 [Example 519, 4-amino-7-chloro-N-((6-cyclopropyl-3-pyridazinyl)methyl)-N-methyl-1,3-dihydrofuro[3,4-c]quinoline-8-carboxamide] | 14000 | 187
Cc1cc2nc(N)c3c(cnn3C)c2cc1C(=O)N(C)Cc1ccc(C(F)(F)F)cn1 [Example 520, 4-amino-N,3,7-trimethyl-N-((5-(trifluoromethyl)-2-pyridinyl)methyl)-3H-pyrazolo[3,4-c]quinoline-8-carboxamide] | 9060 | 149
Cc1cc2nc(N)c3cnn(C)c3c2cc1C(=O)N(C)Cc1ccc(C(F)(F)F)cn1 [Example 521, 4-amino-N,1,7-trimethyl-N-((5-(trifluoromethyl)-2-pyridinyl)methyl)-1H-pyrazolo[4,3-c]quinoline-8-carboxamide] | 698 | 18
CC(C)N(Cc1ccc(C2CC2)cn1)C(=O)c1cc2c(cc1F)nc(N)c1c2cnn1C [Example 522, 4-amino-N-((5-cyclopropyl-2-pyridinyl)methyl)-7-fluoro-3-methyl-N-(2-propanyl)-3H-pyrazolo[3,4-c]quinoline-8-carboxamide] | 380 | 14
CN(Cc1ccc(Cl)cn1)C(=O)c1ccc2nc(N)c3cnn(C)c3c2c1 [Example 523, 4-amino-N-((5-chloro-2-pyridinyl)methyl)-N,1-dimethyl-1H-pyrazolo[4,3-c]quinoline-8-carboxamide] | 6790 | 72
CN(Cc1ccc(C(F)F)cn1)C(=O)c1ccc2nc(N)c3cnn(C)c3c2c1 [Example 524, 4-amino-N-((5-(difluoromethyl)-2-pyridinyl)methyl)-N,1-dimethyl-1H-pyrazolo[4,3-c]quinoline-8-carboxamide] | 16400 | 183
CN(Cc1ccc(C(F)F)cn1)C(=O)c1cc2c(cc1F)nc(N)c1cnn(C)c12 [Example 525, 4-amino-N-((5-(difluoromethyl)-2-pyridinyl)methyl)-7-fluoro-N,1-dimethyl-1H-pyrazolo[4,3-c]quinoline-8-carboxamide] | 2120 | 32
CN(Cc1ccc(C(F)(F)F)c(F)c1)C(=O)c1ccc2nc(N)c3cnn(C)c3c2c1 [Example 526, 4-amino-N-(3-fluoro-4-(trifluoromethyl)benzyl)-N,1-dimethyl-1H-pyrazolo[4,3-c]quinoline-8-carboxamide] | 6950 | 169
CN(Cc1ncc(C(F)(F)F)cc1F)C(=O)c1ccc2nc(N)c3cnn(C)c3c2c1 [Example 527, 4-amino-N-((3-fluoro-5-(trifluoromethyl)-2-pyridinyl)methyl)-N,1-dimethyl-1H-pyrazolo[4,3-c]quinoline-8-carboxamide] | 13500 | 183
CN(Cc1ncc(C(F)(F)F)cc1F)C(=O)c1cc2c3c(c(N)nc2cc1F)COC3 [Example 528, 4-amino-7-fluoro-N-((3-fluoro-5-(trifluoromethyl)-2-pyridinyl)methyl)-N-methyl-1,3-dihydrofuro[3,4-c]quinoline-8-carboxamide] | 5420 | 111
CN(Cc1ccc(-c2cnn(C(F)(F)F)c2)nn1)C(=O)c1ccc2nc(N)c3cnn(C)c3c2c1 [Example 529, 4-amino-N,1-dimethyl-N-((6-(1-(trifluoromethyl)-1H-pyrazol-4-yl)-3-pyridazinyl)methyl)-1H-pyrazolo[4,3-c]quinoline-8-carboxamide] | 28500 | 887
CN(Cc1ccc(-c2ccc(C(F)(F)F)cc2)nn1)C(=O)c1ccc2nc(N)c3cnn(C)c3c2c1 [Example 530, 4-amino-N,1-dimethyl-N-((6-(4-(trifluoromethyl)phenyl)-3-pyridazinyl)methyl)-1H-pyrazolo[4,3-c]quinoline-8-carboxamide] | 6560 | 165
C[C@H](c1ccc(-c2ccc(C(F)(F)F)cc2)cc1)N(C)C(=O)c1ccc2nc(N)c3cnn(C)c3c2c1 [Example 531, 4-amino-N,1-dimethyl-N-((1R)-1-(4′-(trifluoromethyl)[biphenyl]-4-yl)ethyl)-1H-pyrazolo[4,3-c]quinoline-8-carboxamide] | 2340 | 188
C[C@H](c1ccc(-c2ccc(C(F)(F)F)cc2)nn1)N(C)C(=O)c1ccc2nc(N)c3cnn(C)c3c2c1 [Example 532, 4-amino-N,1-dimethyl-N-((1R)-1-(6-(4-(trifluoromethyl)phenyl)-3-pyridazinyl)ethyl)-1H-pyrazolo[4,3-c]quinoline-8-carboxamide] | 2030 | 37
C[C@H](c1ccc(-c2ccc(S(F)(F)(F)(F)F)cc2)cc1)N(C)C(=O)c1ccc2nc(N)c3cnn(C)c3c2c1 [Example 533, 4-amino-N,1-dimethyl-N-((1R)-1-(4′-(pentafluoro-lambda~6~- sulfanyl)[biphenyl]-4-yl)ethyl)-1H-pyrazolo[4,3-c]quinoline-8-carboxamide] | 3190 | 459
CC(C)N(Cc1ccc(C(F)(F)F)cn1)C(=O)c1cc2c3c(c(N)nc2cn1)CCO3 [Example 534, 4-amino-N-(2-propanyl)-N-((5-(trifluoromethyl)-2-pyridinyl)methyl)-2,3-dihydrofuro[3,2-c][1,7]naphthyridine-8-carboxamide] | 5580 | 581
CN(CC(F)(F)c1ccc(Cl)cn1)C(=O)c1ccc2nc(N)c3cnn(C)c3c2c1 [Example 535, 4-amino-N-(2-(5-chloro-2-pyridinyl)-2,2-difluoroethyl)-N,1-dimethyl-1H-pyrazolo[4,3-c]quinoline-8-carboxamide] | 6990 | 860
CC(C)N(Cc1ccc(C(F)(F)F)cn1)C(=O)c1cc2c3c(c(N)nc2cc1F)CCO3 [Example 536, 4-amino-7-fluoro-N-(2-propanyl)-N-((5-(trifluoromethyl)-2-pyridinyl)methyl)-2,3-dihydrofuro[3,2-c]quinoline-8-carboxamide] | 325 | 50
CCN(Cc1ccc(C(F)(F)F)cn1)C(=O)c1cc2c3c(c(N)nc2nc1Cl)COC3 [Example 537, 4-amino-7-chloro-N-ethyl-N-((5-(trifluoromethyl)-2-pyridinyl)methyl)-1,3-dihydrofuro[3,4-c][1,8]naphthyridine-8-carboxamide] | 5390 | 222
Cc1nn(C)c2c1c(N)nc1cc(F)c(C(=O)N(Cc3ccc(C(F)(F)F)cn3)C(C)C)cc12 [Example 538, 4-amino-7-fluoro-1,3-dimethyl-N-(2-propanyl)-N-((5-(trifluoromethyl)-2-pyridinyl)methyl)-1H-pyrazolo[4,3-c]quinoline-8-carboxamide] | 735 | 40
